Measurements taken from patent US10364277B2, “Diagnosis and treatment of autoimmune diseases” (NewSouth Innovations Pty Limited, priority 2013, dated 2019).
“Also recorded” adds a separate entry of the source. Marks after values point to notes of the source that are not given here. One block for each molecule: values may come before it. Ends that are not written are not given here.

Legend:
HLAB*2705 = HLAB*2705 (Homo sapiens, UniProt P01889, D138H/D201E/E176V/E204Q/G107R/H137Y/K202T/N104T/N87E/Q56L/Q94K/R106L/R155S/R180L/S101D/S121N/S48T/Y140D/Y33H/Y91C); assay: REVEAL MHC-peptide binding assay; conditions: for % Positive Control: REVEAL binding score relative to positive control peptide, pass threshold ≥45%
[1] = system: T cells of patients with AS; conditions: known from Kuon et al. 1997; cited from earlier work
Lewis rats = assay: Immunization of Lewis rats with peptide in CFA (uveitis/arthritis); assay type: in vivo, rat; set-up: histol Average / Arthritis Total: scale not given here; conditions: for Arthritis Total / Arthritis day 25 / incidence / histol Average: 50 μg peptide/animal; for clin uveitis: 6 Lewis rats, 50 μg peptide/animal s.c. in CFA; for incidence: eyes with histological findings / eyes scored; for animals immunised that developed arthritis: groups of 6 animals, not HLA-B27 transgenics; for histol Average: histological uveitis score of eyes
Experimental: Animals: Lewis rats, age 6 weeks,
Peptides were emulsified (sonification) in CFA (50:50, CFA:Peptid) supplemented with M Tuberculosis H37RA (BD, Heidelberg, Germany) to a final concentration of 2.5 mg/ml
Peptide is injected s.c. in both hindlegs, 50 μg peptide/200 μl emulsion, 100 μl/leg,
Group size: 6 animals, 3 groups
7 days post immunization animals were examined daily (eyes and feet)
Eyes were embedded in tissue tec and frozen at −80 degree.
8 μm cryo section were stained with hematoxilin and graded.

Rats = assay: Induction of oral tolerance in rats; assay type: in vivo, rat; conditions: for affected joints / average score/animal / incidence: 4 rats
PBMC = assay: Ex vivo IFN-γ EliSpot assay; conditions: for IFN-γ response to individual peptide compared to the controls: one HLA B27 subject of 2 (B27004, B27007), p<0.001
[2] = PBS-fed 3 x, immunized with 100 μg peptide
[3] = fed 200 μg peptide 3 x, immunized with 100 μg of the same peptide

% Positive Control (HLAB*2705): 0.04%
Molecule: 8 (DRASFIKNL; Collagen peptide fragment) [Peptide 8]
stimulation of T cells of patients with AS [1]: stimulate T cells of patients with AS

% Positive Control (HLAB*2705): 0.02%
Molecule: 9 (SRHHAFCFR; Aggrecan peptide fragment) [Peptide 9]
stimulation of T cells of patients with AS [1]: stimulate T cells of patients with AS

% Positive Control (HLAB*2705): 1.06%
Molecule: 10 (ARGQPGVMG) [Peptide 10]

Molecule: ARKLLLDNL [Peptide P2]
% Positive Control (HLAB*2705): 5.26% | Arthritis Total (Lewis rats): 8 | clin uveitis (Lewis rats): 0 | Arthritis day 25 (Lewis rats): 8 | incidence (Lewis rats): 5/11* | animals immunised that developed arthritis (Lewis rats): 5/6 | histol Average (Lewis rats): 0.181 | affected joints (Rats; [2]): 3 | average score/animal (Rats; [2]): 1.875 | incidence (Rats; [2]): 2/4 | average score/animal (Rats; [3]): 3.25 | incidence (Rats; [3]): 1/4 | histological score (Rats; left eye of rat 1-3, PBS-fed, imm. P2D6): 2-3

% Positive Control (HLAB*2705): 0.24% | binding relative to the positive control peptides (HLAB*2705; in vitro MHC-peptide binding assay, HLA-B2705): significant binding
Molecule: KRFNALQYL [human lumican residues 226-234]
Arthritis Total (Lewis rats): 3 | clin uveitis (Lewis rats): 0 | Arthritis day 25 (Lewis rats): 0 | incidence (Lewis rats): 3/12 | histol Average (Lewis rats): 0.125

Molecule: KRLAETLAL [compound 1, KRLAETLAL]
% Positive Control (HLAB*2705): 105.51%

Molecule: LQNNLIETI (Fragment of keratocan protein)
IFN-γ response to individual peptide compared to the controls (PBMC): significant increase in response

Molecule: LQYLRLSHN
IFN-γ response to individual peptide compared to the controls (PBMC): significant increase in response

Molecule: NRFSVAYML [Peptide P3]
% Positive Control (HLAB*2705): 0.00% | Arthritis Total (Lewis rats): 4 | clin uveitis (Lewis rats): 0 | Arthritis day 25 (Lewis rats): 2 | incidence (Lewis rats): 2/12 | histol Average (Lewis rats): 0.083 | affected joints (Rats; [2]): 10 | average score/animal (Rats; [2]): 2.75-3.00 | incidence (Rats; [2]): 3/4 | induction of oral tolerance (Rats; compared with P2): induces oral tolerance more effectively than P2 | affected joints (Rats; [3]): 0 | average score/animal (Rats; [3]): 0 | incidence (Rats; [3]): 0/4 | development of arthritis or uveitis (Rats; rats fed with P3 and immunized with P3): None of the rats fed with P3 and immunized with P3 developed arthritis or uveitis; also recorded: None of the animals who received P3 had evidence of arthritis or uveitis

Molecule: QLEDIRLDG (A second opticin protein fragment)
IFN-γ response to individual peptide compared to the controls (PBMC): significant increase in response

B1: Lumican: whole recombinant human lumican (protein, UniProt P51884 19-338, looked up)
Lumican: QYYDYDFPLSIYGQSSPNCAPECNCPESYPSAMYCDELKLKSVPMVPPGIKYLYLRNNQIDHIDEKAFENVTDLQWLILDHNLLENSKIKGRVFSKLKQLKKLHINHNNLTESVGPLPKSLEDLQLTHNKITKLGSFEGLVNLTFIHLQHNRLKEDAVSAAFKGLKSLEYLDLSFNQIARLPSGLPVSLLTLYLDNNKISNIPDEYFKRFNALQYLRLSHNELADSGIPGNSFNVSSLVELDLSYNKLKNIPTVNENLENYYLEVNQLEKFDIKSFCKILGPLSYSKIKHLRLDGNRISETSLPPDMYECLRVANEVTLN
animals immunised that developed arthritis (Lewis rats): all developed arthritis | patients demonstrating increased IFN-γ production (PBMC; HLA B27 AU patients): 8 of 10 | Interferon gamma response, Patients (N = 10) (PBMC; number of HLA B27 AU patients responding, PBMC, 24 hours): 8 | Interferon gamma response, Controls (N-6) (PBMC; number of healthy controls responding, PBMC, 24 hours): 2 | IFN-γ response of HLA B27 AU patients vs average of healthy controls (PBMC; ten patients vs controls n=6, one way ANOVA, Bonferroni, lumican 2.5 μg/mL): significant difference
